Assay: Toxicity studies in monkeys (single dose, 28-day, 13-week, 12-month)
Assay type: in vivo, cynomolgus monkeys
Conditions: for Exposure multiple relative to human exposure at 10 mg BID: monkeys 100 mg/kg/day
Procedure: In cynomolgus monkeys, dose-limiting emesis occurred at 300 mg/kg single dose. In repeat
In a 28-day repeat dose study, one male given 100 mg/kg/day experienced a seizure. […] Reduced weight gain and food consumption occurred in 28-day, 13-week and 12-month studies at doses ≧10 mg/kg/day. Cholesterol, LDL and HDL decreased at ≧10 mg/kg/day in the 12-month study. […] The NOAEL was considered to be 2 mg/kg/day.
This animal continued treatment on Day 2 and no further seizures were observed throughout the duration of the study. […] A reduction in serum lipids (cholesterol, HDL, and LDL) was measured in both sexes treated with ≧10 mg/kg doses of lorcaserin. Reductions in total cholesterol and LDL occurred in some animals treated with 2 mg/kg as well. There was a dose-independent reduction in the mean triglyceride concentration in both sexes at ≧2 mg/kg. Mild increases in ALT occurred primarily in females at all dose levels and in one control animal. White blood cells in the urine of some females dosed at ≧50 mg/kg/day were thought to be associated with renal tubular changes noted histologically in three out of five cases.
There were no lorcaserin-related gross findings. Histologic changes were identified in the kidneys, ovaries, and possibly in the liver. Changes in the kidney consisted of focal or multifocal tubular epithelial cell degeneration, regeneration, and cellular casts. […] The histologic renal changes attributed to lorcaserin were not associated with changes in serum chemistry or kidney function. A review of the renal findings was conducted by two expert human renal pathologists, each of whom independently read blinded slides and reached the same conclusion: the administration of lorcaserin to monkeys for 12 months was not associated with drug-related renal pathology. […] One of these pathologists attributed the potential finding of regeneration to a staining artifact resulting in a bluish cytoplasmic discoloration. […] This change was reversible after a one month drug-free interval. […] The lipidosis was not present in animals sacrificed after a one month drug-free interval. No changes were identified by the study pathologist or the peer review pathologist in the heart, heart valves, pulmonary vessels or lungs of animals given lorcaserin compared to controls.
Changes in the kidney consisted of focal tubular epithelial cell degeneration, regeneration, and cellular casts. […] These findings were not observed in previous monkey studies, and no similar kidney findings occurred in rodents. Renal findings were determined to be unrelated to lorcaserin treatment by two independent human renal pathologists after reviewing blinded slide sets. In their independent opinions, the findings were not dose related and were consistent with age and focal inflammation or infection. One pathologist attributed the findings of regeneration to a staining artifact, resulting in a bluish cytoplasmic discoloration. If tubular renal epithelial regeneration were artifactual, renal findings of the conducting laboratory would be limited to the high dose. At 2, 10, 50, and 125 mg/kg, the margins were 1.0 and 0.6, 8 and 5, 44 and 31, and 51 and 51 times human exposure at the MRD for males and females, respectively. Renal findings in rodents and monkeys were of uncertain relationship to lorcaserin. Substantial margins over human exposure exist for all renal finding in rodents, and in monkeys according to two expert human renal pathologists. Even assuming the renal findings in monkeys are drug related, the principal findings were focal or multifocal, minimal to mild (1 instance of moderate regeneration at the high dose) renal tubular epithelial regeneration and degeneration that would have had to have been much more severe and diffuse to be of clinical relevance. Based upon adverse events, clinical chemistry and urinalyses in an extensive phase 2 and phase 3 program, there is no evidence of a lorcaserin effect on the kidney in humans.

C[C@H]1CNCCc2ccc(Cl)cc21 [Lorcaserin, (R)-8-chloro-1-methyl-2,3,4,5-tetrahydro-1H-3-benzazepine]
NOAEL at 12 months (both sexes, cynomolgus monkey, in vivo, oral, monkeys, 12-month study): 2 mg/kg/day
MTD (cynomolgus monkey, in vivo, oral, monkeys, repeat dose studies, read-out: Maximum tolerated dose): 100 to 125 mg/kg/day
Single dose with dose-limiting emesis (cynomolgus monkeys): 300 mg/kg
Margin, times human exposure at the MRD (monkeys 2 mg/kg, females): 0.6 times
Margin, times human exposure at the MRD (monkeys 2 mg/kg, males): 1.0 times
Margin, times human exposure at the MRD (monkeys 10 mg/kg, females): 5 times
Margin, times human exposure at the MRD (monkeys 10 mg/kg, males): 8 times
Margin, times human exposure at the MRD (monkeys 50 mg/kg, females): 31 times
Margin, times human exposure at the MRD (monkeys 50 mg/kg, males): 44 times
Exposure multiple relative to human exposure at 10 mg BID (females): 68
Exposure multiple relative to human exposure at 10 mg BID (males): 74
Margin, times human exposure at the MRD (monkeys 125 mg/kg, females): 51 times
Margin, times human exposure at the MRD (monkeys 125 mg/kg, males): 51 times
Animals with focal renal tubular epithelial cell degeneration and/or regeneration (minimal to mild regeneration in renal cortex) (monkeys 12 months, 2 mg/kg): 1/8
Females with cystic ovarian follicles (monkeys 12 months, 2 mg/kg): 0/4
Animals with hepatic lipidosis (monkeys 12 months, 2 mg/kg/day): 4/8
Animals with focal renal tubular epithelial cell degeneration and/or regeneration (minimal to mild regeneration in renal cortex) (monkeys 12 months, 10 mg/kg): 2/8
Females with cystic ovarian follicles (monkeys 12 months, 10 mg/kg): 1/4
Animals with hepatic lipidosis (monkeys 12 months, 10 mg/kg/day): 2/8
Animals with focal renal tubular epithelial cell degeneration and/or regeneration (minimal to mild regeneration in renal cortex) (monkeys 12 months, 50 mg/kg): 3/8
Females with cystic ovarian follicles (monkeys 12 months, 50 mg/kg): 1/4
Males with cellular casts (monkeys 12 months, 50 mg/kg): 1/4
Animals with hepatic lipidosis (monkeys 12 months, 50 mg/kg/day): 3/8
Animals with cellular casts (monkeys 12 months, 125 mg/kg): 4/4
Animals with focal renal tubular epithelial cell degeneration and/or regeneration (minimal to mild regeneration in renal cortex) (monkeys 12 months, 125 mg/kg): 6/8
Females with cellular casts (monkeys 12 months, 125 mg/kg): 2/4
Females with cystic ovarian follicles (monkeys 12 months, 125 mg/kg): 3/4
Males with cellular casts (monkeys 12 months, 125 mg/kg): 1/4
Animals with regeneration (incl. moderate) (monkeys 12 months, 125 mg/kg group): 7/8
Animals with hepatic lipidosis (monkeys 12 months, 250 mg/kg/day): 4/8
Doses with dose-dependent decrease in activity and hunched appearance (monkeys 12 months, both sexes): ≥ 10 mg/kg
Females with moderate epithelial regeneration (monkeys 12 months, high dose): 1/4
Animals with minimal to mild tubular epithelial degeneration (monkeys 12 months, high dose group (125 mg/kg)): 6 of 8
Doses at which cholesterol, LDL and HDL decreased (monkeys, 12-month study): ≥ 10 mg/kg/day
Lorcaserin-related deaths (monkeys, 12-month study): no lorcaserin-related deaths
Doses with reduced weight gain and food consumption (monkeys, 28-day, 13-week and 12-month studies): ≥ 10 mg/kg/day

From US8999970B2, “Administration of an anti-obesity compound to individuals with renal impairment” (Arena Pharmaceuticals, Inc., priority 2010, dated 2015)
